The nature of data set [1]: Milk-to-plasma (M/P) drug concentration ratio obtained in vivo, from literature. Also noted: species or system human. To be noted: Table S1, scale of drug penetration into milk 1-4.
Data set [2] concerns the target T1, bovine serum albumin (BSA) (Bos taurus, UniProt P02769).
T1 construct: purchased Sigma Aldrich
Briefly: NP TLC on plates impregnated with bovine serum albumin. It counts as binding. To be noted: Table S3, NP plate impregnated with 2 mg/mL BSA; pH 7.4 mobile phase.

In data set [3] the target is T1, bovine serum albumin (BSA). Kind of data set: RP TLC on plates impregnated with bovine serum albumin. To be noted: Table S4, RP plate impregnated with 2 mg/mL BSA; pH 7.4 mobile phase. It counts as binding.
Data set [4] in a line: NP TLC on non-impregnated control plates. It counts as physicochemical. To be noted: Table S3, non-impregnated NP plate; acetonitrile/acetate buffer pH 7.4/methanol 60:20:20.
Procedure: (§1) For TLC chromatography, glass plates 20 × 20 cm from Merck, covered with silica gel with the addition of a fluorescent indicator, were used. Normal phase (NP) plates were used with standard Merck TLC Silica gel 60 F254 plates, while in reverse phase (RP) silanized plates RP-2: Merck TLC Silica gel 60 RP-2 F254 were used.
(§2) Normal and reversed phase thin layer chromatography (NP TLC and RP TLC respectively) was performed using silica-gel-coated glass plates. Half of them were covered with 2 mg/mL bovine serum albumin solution and half remained pure.
(§3) The mobility of the compounds was also determined on the plates with no protein as a modifier. […] The acetate buffer (20 mM) was prepared by dissolving 1.54 g of ammonium acetate in 1 L of distilled water. The pH was then adjusted with a concentrated ammonia solution using a pH meter. The plates were developed in standard, vertical chromatographic chambers, each time using 100 mL of the mobile phase, after the chamber was previously saturated with solvent vapors for approximately 1 h.
(§4) The unfolded-protein-impregnated plates and the control plates were scanned with a Desaga CD 60 densitometer. The values of the delay factor (Rf) were collected, i.e., the ratio of the distance traveled by the substance to be analyzed to the distance traveled through the front of the mobile phase. […] The experiment was repeated (for both BSA-coated and control plates) and the Rf values pooled are the mean of both series of experiments.
The nature of data set [5]: RP TLC on non-impregnated control plates. The following applies: Table S4, non-impregnated RP plate; acetonitrile/acetate buffer pH 7.4/methanol 60:20:20. The class given is physicochemical.
Procedure: as §1, §2, §3, §4
Data set [6] can be described thus: HPLC on immobilized artificial membrane column (HPLCIAM). It counts as physicochemical. The following applies: for log k IAM: Table S5, IAM column, pH 7.4; for k IAM: Table S5, retention factor, IAM column, phosphate buffer pH 7.4/acetonitrile 80:20.
Data set [7] has as its target T2, human serum albumin (HSA) (Homo sapiens, UniProt P02768).
Procedure: (§5) High performance liquid chromatography was performed using immobilized human serum albumin column (HPLCHSA) and immobilized artificial membrane (HPLCIAM). HPLC was the source of the log k values (logarithm of retention factor), log kHSA and log kIAM.
(§6) High performance liquid chromatography was performed using a chromatography column with immobilized human serum albumin. The assay was performed on a Perkin Elmer Series 200 instrument connected to a UV-VIS spectrometer as detector. The analytical wavelength was the same for all compounds at 210 nm. […] The acetate buffer was prepared by dissolving 0.77 g of ammonium acetate in 1 L of distilled water. The pH was then adjusted with a concentrated ammonia solution using a pH meter.
(§7) The phase flow through the system was set to 0.9 mL/min as recommended by the column manufacturer. The solutions were delivered to the column using an autosampler syringe, the injection size was 10 µL. Since the column could not be thermostated, the room was kept at a constant temperature of 25 degrees Celsius.
(§8) Chromatographic data (retention coefficient, k, and derivative, log k) were obtained with TotalChrom software connected to an HPLC instrument. […] The experiment was then repeated and the collected retention rates were the mean values of both series.
In data set [8] the target is T2, human serum albumin (HSA). Briefly: in vitro. The following applies: immobilized hsa column, pH 7.4.
Procedure: as §5, §6, §7, §8
For data set [9] the following is noted: Table S1, milk/plasma drug concentration ratio, in vivo; cited from earlier work.
Data set [10] deals with plasma protein. The following applies: Table S1, plasma protein binding given as fraction; ref DrugBank [7]; cited from earlier work.
For data set [11] the following is noted: Table S1; source not stated; cited from earlier work.
The conditions of data set [12]: Table S1, coded 1/0; ref DrugBank [7]; cited from earlier work.
The mark [13] stands for this setting: Table S5, retention factor, HSA column, pH 7.4, 25 degrees Celsius.

Results on eight compounds are retold here after paper PMC9182007, “Statistical Methods in the Study of Protein Binding and Its Relationship to Drug Bioavailability in Breast Milk” (Molecules, 2022).

Like-named read-outs stand apart in the source and are kept apart here.

The chromatographic logD is a lipophilicity value derived from retention on a column. A high value points to higher lipophilicity.

T2 sequence (P02768 25-609): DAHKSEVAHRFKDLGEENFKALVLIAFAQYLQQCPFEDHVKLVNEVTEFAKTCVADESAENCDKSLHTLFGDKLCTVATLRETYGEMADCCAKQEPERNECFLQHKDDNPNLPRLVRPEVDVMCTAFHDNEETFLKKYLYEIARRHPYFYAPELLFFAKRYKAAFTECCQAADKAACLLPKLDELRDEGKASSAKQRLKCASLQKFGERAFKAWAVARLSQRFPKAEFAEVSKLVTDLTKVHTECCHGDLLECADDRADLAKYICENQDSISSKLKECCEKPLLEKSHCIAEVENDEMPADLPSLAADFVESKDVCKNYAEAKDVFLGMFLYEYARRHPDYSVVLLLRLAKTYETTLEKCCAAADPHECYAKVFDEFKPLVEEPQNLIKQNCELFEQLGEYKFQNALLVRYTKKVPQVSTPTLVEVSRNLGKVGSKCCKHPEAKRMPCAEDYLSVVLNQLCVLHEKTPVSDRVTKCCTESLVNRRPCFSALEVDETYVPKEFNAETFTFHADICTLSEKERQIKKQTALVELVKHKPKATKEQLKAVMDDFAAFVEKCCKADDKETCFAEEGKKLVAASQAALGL
T1 sequence (P02769 25-607): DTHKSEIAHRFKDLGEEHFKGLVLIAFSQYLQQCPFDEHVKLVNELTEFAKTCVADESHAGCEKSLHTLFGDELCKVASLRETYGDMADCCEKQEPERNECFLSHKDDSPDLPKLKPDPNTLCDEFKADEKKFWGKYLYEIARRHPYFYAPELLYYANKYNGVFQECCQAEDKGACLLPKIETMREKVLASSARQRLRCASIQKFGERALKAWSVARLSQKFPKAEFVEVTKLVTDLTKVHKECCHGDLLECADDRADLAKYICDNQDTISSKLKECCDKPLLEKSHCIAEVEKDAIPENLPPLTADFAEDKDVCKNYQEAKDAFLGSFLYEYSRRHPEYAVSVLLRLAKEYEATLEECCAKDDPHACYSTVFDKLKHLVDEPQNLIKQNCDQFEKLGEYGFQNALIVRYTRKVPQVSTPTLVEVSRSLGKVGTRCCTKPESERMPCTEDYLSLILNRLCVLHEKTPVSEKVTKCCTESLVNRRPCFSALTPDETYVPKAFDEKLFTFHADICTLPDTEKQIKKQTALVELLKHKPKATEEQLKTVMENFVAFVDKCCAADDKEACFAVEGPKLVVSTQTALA

Take `CN/C(=N/CCSCc1nc[nH]c1C)NC#N` [cimetidine]: the M/P code in [1] was 4 (4 is M/P >1.20—dangerous). The “NP (Rf, BSA-impregnated NP plate)” value in data set [2] is reported as 0.67. In addition, the “RP (Rf, BSA-impregnated RP plate)” value in data set [3] came to 0.87. For the same compound, the “CNP (Rf, control NP plate)” value in [4] came out at 0.64. Moreover, the “CRP (Rf, control RP plate)” value in [5] was 0.88. Also, in data set [6], the “log k IAM” value is -0.58 and the “k IAM” value is reported as 0.26. Moreover, the “k HSA” value in data set [7] (setting [13]) was found to be 0.67. The chromatographic logD in [8] was -0.17. For the same compound, the M/P in [9] is 1.7. In data set [10], the PB is 0.17. In [11], the BB vivo is on record as -1.420. Moreover, the “CNS+/-” value in data set [12] is recorded as 0.

For the compound `CN1C(=O)CC(=O)N(c2ccccc2)c2cc(Cl)ccc21` [clobazam], the M/P code in [1] is on record as 1 (Code 1 corresponds to drugs with an M/P value <0.40—completely safe). Moreover, in data set [2], the “NP (Rf, BSA-impregnated NP plate)” value is 0.95. Besides, in [3], the “RP (Rf, BSA-impregnated RP plate)” value amounted to 0.80. Besides, the “CNP (Rf, control NP plate)” value in [4] is on record as 0.95. Moreover, in data set [5], the “CRP (Rf, control RP plate)” value was 0.79. Further, in data set [6], the “log k IAM” value worked out at 0.41 and the “k IAM” value is 2.58. In data set [7] (pH 7.4), the “k HSA” value came out at 1.01. The chromatographic logD in [8] was found to be 0. The M/P in data set [9] was 0.25. In [10], the PB is recorded as 0.85. Further, the BB vivo in data set [11] is reported as 0.350. In addition, the “CNS+/-” value in data set [12] is recorded as 1.

Consider `Clc1cccc(Cl)c1N=C1NCCN1` [clonidine], for which the M/P code in data set [1] was 4 (4 is M/P >1.20—dangerous). The “NP (Rf, BSA-impregnated NP plate)” value in [2] came to 0.50. Also, the “RP (Rf, BSA-impregnated RP plate)” value in [3] is 0.68. The “CNP (Rf, control NP plate)” value in data set [4] came out at 0.49. Also, the “CRP (Rf, control RP plate)” value in data set [5] is 0.73. Besides, in [6], the “log k IAM” value was determined as 0.45 and the “k IAM” value came to 2.83. The “k HSA” value in data set [7] (setting [13]) was found to be 1.35. The same compound came in with a chromatographic logD in data set [8] of 0.13. The M/P in data set [9] was 2. Moreover, in data set [10], the PB was 0.3. In [11], the BB vivo is on record as 0.150. Also, the “CNS+/-” value in data set [12] is 1.

For the compound `CN1CCN2c3ccccc3Cc3ccccc3C2C1` (stereo not shown) [mianserin], the M/P code in data set [1] is reported as 4 (4 is M/P >1.20—dangerous). In addition, the “NP (Rf, BSA-impregnated NP plate)” value in data set [2] was 0.55. The “RP (Rf, BSA-impregnated RP plate)” value in data set [3] turned out to be 0.55. In data set [4], the “CNP (Rf, control NP plate)” value is 0.54. Besides, the “CRP (Rf, control RP plate)” value in data set [5] was determined as 0.55. Further, in data set [6], the “log k IAM” value is 1.34 and the “k IAM” value is given as 21.72. Also, the “k HSA” value in data set [7] (setting [13]) worked out at 6.39. This compound also yielded a chromatographic logD in data set [8] of 0.81. Moreover, the M/P in data set [9] is 2.2. For the same compound, in data set [10], the PB is given as 0.9. Further, the BB vivo in data set [11] is on record as 0.990. In addition, the “CNS+/-” value in data set [12] is recorded as 1.

As to `Cc1ncc2n1-c1ccc(Cl)cc1C(c1ccccc1F)=NC2` [midazolam], in data set [1], the M/P code is given as 2 (2 corresponds to the range of 0.40–0.80—at the safety limit). In addition, the “NP (Rf, BSA-impregnated NP plate)” value in data set [2] turned out to be 0.83. Besides, the “RP (Rf, BSA-impregnated RP plate)” value in data set [3] came out at 0.66. Also, the “CNP (Rf, control NP plate)” value in [4] is 0.82. Besides, the “CRP (Rf, control RP plate)” value in [5] worked out at 0.66. Further, in data set [6], the “log k IAM” value came to 0.76 and the “k IAM” value was 5.69. In data set [7] (pH 7.4), the “k HSA” value amounted to 3.22. The compound further displayed a chromatographic logD in data set [8] of 0.51. In data set [9], the M/P is 0.785. Besides, the PB in data set [10] is 0.97. The BB vivo in [11] is 0.398. Also, the “CNS+/-” value in data set [12] was 1.

As to `CN1CCN2c3ncccc3Cc3ccccc3C2C1` (stereo not shown) [mirtazapine], in data set [1], the M/P code was 3 (3 range 0.81–1.20—possibly over the safety limit). For the same compound, the “NP (Rf, BSA-impregnated NP plate)” value in data set [2] is given as 0.39. Further, in data set [3], the “RP (Rf, BSA-impregnated RP plate)” value was found to be 0.58. In addition, the “CNP (Rf, control NP plate)” value in data set [4] amounted to 0.39. For the same compound, in data set [5], the “CRP (Rf, control RP plate)” value was 0.58. Also, in data set [6], the “log k IAM” value is reported as 0.77 and the “k IAM” value came out at 5.83. For the same compound, the “k HSA” value in data set [7] (setting [13]) was 2.96. Besides, in data set [8], the chromatographic logD was 0.47. Moreover, the M/P in data set [9] is 1.1. Moreover, the BB vivo in data set [11] was 0.530. In addition, the “CNS+/-” value in [12] was 1.

For `CC(=O)Nc1ccc(O)cc1` [paracetamol], in data set [1], the M/P code was 3 (3 range 0.81–1.20—possibly over the safety limit). For the same compound, the “NP (Rf, BSA-impregnated NP plate)” value in data set [2] is 0.94. For the same compound, in [3], the “RP (Rf, BSA-impregnated RP plate)” value turned out to be 0.92. For the same compound, in data set [4], the “CNP (Rf, control NP plate)” value stood at 0.93. Also, in data set [5], the “CRP (Rf, control RP plate)” value is given as 0.92. Also, in [6], the “log k IAM” value was -0.49 and the “k IAM” value is on record as 0.32. In addition, the “log k HSA” value in [7] (Table S5, HSA, pH 7.4) is reported as -0.55. For the same compound, the “k HSA” value in data set [7] (setting [13]) is given as 0.28. In data set [9], the M/P is 0.84. Besides, the PB in [10] is 0.25. Also, the BB vivo in data set [11] is -0.463. The “CNS+/-” value in [12] was 1.

As to `O=C1NC(=O)C(c2ccccc2)(c2ccccc2)N1` [phenytoin], the M/P code in data set [1] was 1 (Code 1 corresponds to drugs with an M/P value <0.40—completely safe). For the same compound, in [2], the “NP (Rf, BSA-impregnated NP plate)” value is listed as 0.97. Also, the “RP (Rf, BSA-impregnated RP plate)” value in data set [3] worked out at 0.86. Moreover, the “CNP (Rf, control NP plate)” value in data set [4] was 0.97. For the same compound, the “CRP (Rf, control RP plate)” value in [5] is reported as 0.87. In [6], the “log k IAM” value is on record as 0.25 and the “k IAM” value amounted to 1.78. Moreover, in data set [7] (setting [13]), the “k HSA” value was 1.63. Further, the chromatographic logD in [8] is 0.21. Further, the M/P in [9] is given as 0.29. Moreover, the PB in data set [10] is 0.9. Moreover, the BB vivo in data set [11] is reported as -0.096. Moreover, the “CNS+/-” value in [12] is listed as 1.
